Legend:
A/Udorn/72 (H3N2) virus = experiment: Plaque assay in MDCK cells: EC50 by reduction of plaque number; type: cell-based, influenza virus; details: MDCK
pseudoHIV particles = experiment: HIV pseudovirus assay in X4 cells (luciferase); type: cell-based, HIV-1; details: Human immunodeficiency virus 1, read-out: HIV EC50
Procedure: A plasmid coding the HIV-1 genome, deleting the envelope protein gene and with a luciferase gene inserted, and a plasmid coding the envelope protein gene were cotransfected into 293T cells. After 48 hr, the supernatant containing pseudoHlV particles was collected for transducing assay. In 96 well plates, X4 cells were plated and incubated till confluent. The pseudoHlV particles were incubated with various concentrations of inhibitor compounds for one hour in room temperature. The particles were then used for tranducing X4 cells. The transduced X4 cells were lysed after 48 hr and the luciferase activity was measured in a luminometer.

Compound	EC50 (A/Udorn/72 (H3N2) virus) [nM]	EC50 (pseudoHIV particles) [nM]
NCCCc1cc(-c2ccc(Cl)cc2)oc1/C=C1\SC(=S)N(C2CC3CCC2C3)C1=O (stereo not drawn) [Compound 124]	< 100	< 100
NCCCc1cc(-c2ccc(Cl)cc2)oc1/C=C1\SC(=S)N(C2C3CC4CC(C3)CC2C4)C1=O (stereo not drawn) [Compound 125]	< 100	< 100
COc1cc(OC)cc(-c2cc(CCC(=O)O)c(/C=C3\SC(=S)N(C4C5CC6CC(C5)CC4C6)C3=O)o2)c1 (stereo not drawn) [Compound 129]	< 100	< 100
COc1cc(OC)cc(-c2cc(/C=C/C(=O)O)c(/C=C3\SC(=S)N(C4CC5CCC4C5)C3=O)o2)c1 (stereo not drawn) [Compound 130]	< 100	< 100
COc1cc(O)cc(-c2cc(CCCC(C(=O)O)C(=O)O)c(/C=C3\SC(=S)N(C4CC5CCC4C5)C3=O)o2)c1 (stereo not drawn) [Compound 137]	–	< 100
COc1cc(OC)cc(-c2cc(CCCOC(=O)[C@H](CC(N)=O)NC(=O)OC(C)(C)C)c(/C=C3\SC(=S)N(C4CC5CCC4C5)C3=O)o2)c1 (stereo partly drawn) [Compound 138]	< 100	< 100
COc1cc(OC)cc(-c2cc(CCCOC(=O)[C@@H](N)Cc3ccc(O)cc3)c(/C=C3\SC(=S)N(C4CC5CCC4C5)C3=O)o2)c1 (stereo partly drawn) [Compound 151]	< 100	< 100
COc1cc(OC)cc(-c2cc(CCCNC(=O)[C@H](CC(N)=O)NC(=O)OC(C)(C)C)c(/C=C3\SC(=S)N(C4CC5CCC4C5)C3=O)o2)c1 (stereo partly drawn) [Compound 156]	< 100	< 100
COc1cc(OC)cc(-c2cc(CCCNC(=O)[C@H](Cc3ccccc3)NC(=O)OC(C)(C)C)c(/C=C3\SC(=S)N(C4CC5CCC4C5)C3=O)o2)c1 (stereo partly drawn) [Compound 157]	< 100	< 100
COc1cc(OC)cc(-c2cc(CCCNC(=O)[C@@H](N)Cc3ccc(O)cc3)c(/C=C3\SC(=S)N(C4CC5CCC4C5)C3=O)o2)c1 (stereo partly drawn) [Compound 167]	< 100	< 100
COc1cc(OC)cc(-c2cc(CCCNC(=O)[C@@H](N)CC(N)=O)c(/C=C3\SC(=S)N(C4CC5CCC4C5)C3=O)o2)c1 (stereo partly drawn) [Compound 168]	< 100	< 100
COc1ccc(-c2cc(CCCCCO)c(/C=C3\SC(=S)N(C4CC5CCC4C5)C3=O)o2)cc1 (stereo not drawn) [Compound 341]	< 100	–
COc1ccc(-c2cc(CCCCCO)c(/C=C3\SC(=S)N(C4C5CC6CC(C5)CC4C6)C3=O)o2)cc1 (stereo not drawn) [Compound 342]	< 100	–
O=C1/C(=C/c2oc(-c3cccc(F)c3)cc2CCCCCO)SC(=S)N1C1CC2CCC1C2 (stereo not drawn) [Compound 343]	< 100	–
O=C1/C(=C/c2oc(-c3cccc(F)c3)cc2CCCCCO)SC(=S)N1C1C2CC3CC(C2)CC1C3 (stereo not drawn) [Compound 344]	< 100	–
O=C1/C(=C/c2oc(-c3cccc(Cl)c3)cc2CCCCCO)SC(=S)N1C1CC2CCC1C2 (stereo not drawn) [Compound 345]	< 100	–
O=C1/C(=C/c2oc(-c3cccc(Cl)c3)cc2CCCCCO)SC(=S)N1C1C2CC3CC(C2)CC1C3 (stereo not drawn) [Compound 346]	< 100	–
COc1cccc(-c2cc(CCCCCO)c(/C=C3\SC(=S)N(C4C5CC6CC(C5)CC4C6)C3=O)o2)c1 (stereo not drawn) [Compound 347]	< 100	–
COc1cccc(-c2cc(CCCCCO)c(/C=C3\SC(=S)N(C4CC5CCC4C5)C3=O)o2)c1 (stereo not drawn) [Compound 348]	< 100	–
COc1ccc(-c2cc(CCCO)c(/C=C3\SC(=O)N(C4CC5CCC4C5)C3=O)o2)cc1OCC(=O)N1CCC[C@H]1C(=O)O (stereo partly drawn) [Compound 349]	< 100	–
COc1cc(OCC(=O)N2CCC[C@H]2C(=O)O)cc(-c2cc(CCCO)c(/C=C3\SC(=S)N(C4CC5CCC4C5)C3=O)o2)c1 (stereo partly drawn) [Compound 350]	< 100	–
COc1cccc(-c2cc(CCCO)c(/C=C3\SC(=S)N(C4C5CC6CC(C5)CC4C6)C3=O)o2)c1 (stereo not drawn) [Compound 352]	< 100	–
COc1cccc(-c2cc(CCCO)c(/C=C3\SC(=S)N(C4CC5CCC4C5)C3=O)o2)c1 (stereo not drawn) [Compound 353]	< 100	–
COc1cccc(-c2cc(CCCOC(=O)[C@@H](CC(N)=O)NC(=O)OC(C)(C)C)c(/C=C3\SC(=S)N(C4C5CC6CC(C5)CC4C6)C3=O)o2)c1 (stereo partly drawn) [Compound 354]	< 100	–
COc1cc(OC)cc(-c2cc(CCCCCOC(=O)[C@]3(O)C[C@@H](O)[C@@H](O)[C@H](O)C3)c(/C=C3\SC(=S)N(C4CC5CCC4C5)C3=O)o2)c1 (stereo partly drawn) [Compound 356]	< 100	–
COc1cc(OC)cc(-c2cc(CCCCOC(=O)[C@]3(O)C[C@@H](O)[C@@H](O)[C@H](O)C3)c(/C=C3\SC(=S)N(C4CC5CCC4C5)C3=O)o2)c1 (stereo partly drawn) [Compound 357]	< 100	–
COc1cc(OC)cc(-c2cc(CCCCN3CCOCC3)c(/C=C3\SC(=S)N(C4CC5CCC4C5)C3=O)o2)c1 (stereo not drawn) [Compound 359]	< 100	–
COc1cc(OC)cc(-c2cc(CCCCCN3CCOCC3)c(/C=C3\SC(=S)N(C4CC5CCC4C5)C3=O)o2)c1 (stereo not drawn) [Compound 360]	< 100	–
CC(C)(C)OC(=O)N[C@@H](CC(N)=O)C(=O)N1CCN(CCCCCc2cc(-c3ccc(Cl)cc3)oc2/C=C2\SC(=S)N(C3C4CC5CC(C4)CC3C5)C2=O)CC1 (stereo partly drawn) [Compound 373]	< 100	–

Reference: US8933075B2, “Compounds useful as antiviral agents, compositions, and methods of use” (priority 2010, dated 2015)
